The record followed here is patent publication US10092620B2, “Uses of cyclic peptides for treating and preventing atherosclerosis” (THE SCRIPPS RESEARCH INSTITUTE, priority 2013, dated 2018).

Non-standard residues stand in square brackets, D forms with d. 4Pal = N[C@@H](Cc1ccncc1)C(=O)O; Aoc(2) = CCCCCC[C@H](N)C(=O)O; Orn = NCCC[C@H](N)C(=O)O

The subject of this assay is HDL in human plasma. Description: pre-beta HDL ELISA assay: remodeling HDL in human plasma in vitro. Format: biochemical. As to conditions: pre-beta HDL ELISA. The protocol:
First, various cyclic peptides, including the majority of compounds shown in FIG. 2, were assessed for activities for remodeling HDL in human plasma in vitro. Unlike western blot which was used to generate data shown in FIG. 2, here a pre-beta HDL ELISA assay was used to measure pre-beta HDL levels. Results from the assay are shown in Table 1, which lists the peptides in the order of their activities in remodeling HDL.
“2 (cyclo([dW]L[dW]K[dD]Q[dE]K); SMILES CC(C)C[C@@H]1NC(=O)[C@@H](Cc2c[nH]c3ccccc23)NC(=O)[C@H](CCCCN)NC(=O)[C@@H](CCC(=O)O)NC(=O)[C@H](CCC(N)=O)NC(=O)[C@@H](CC(=O)O)NC(=O)[C@H](CCCCN)NC(=O)[C@@H](Cc2c[nH]c3ccccc23)NC1=O) [compound 2]”: the “Pre-beta HDL generated (normalized level)” value amounted to 0.10.

Turning to “5 (cyclo([dF]W[dW]Y[dQ]H[dH]Q); SMILES NC(=O)CC[C@@H]1NC(=O)[C@@H](Cc2c[nH]cn2)NC(=O)[C@H](Cc2c[nH]cn2)NC(=O)[C@@H](CCC(N)=O)NC(=O)[C@H](Cc2ccc(O)cc2)NC(=O)[C@@H](Cc2c[nH]c3ccccc23)NC(=O)[C@H](Cc2c[nH]c3ccccc23)NC(=O)[C@@H](Cc2ccccc2)NC1=O) [compound 5]”, the “Pre-beta HDL generated (normalized level)” value is given as 1.29.

Take “6 (cyclo(L[dW]L[dW]L[dR]K[dE]); SMILES CC(C)C[C@@H]1NC(=O)[C@@H](Cc2c[nH]c3ccccc23)NC(=O)[C@H](CC(C)C)NC(=O)[C@@H](Cc2c[nH]c3ccccc23)NC(=O)[C@H](CC(C)C)NC(=O)[C@@H](CCC(=O)O)NC(=O)[C@H](CCCCN)NC(=O)[C@@H](CCCNC(=N)N)NC1=O) [compound 6]”: the “Pre-beta HDL generated (normalized level)” value is listed as 0.36.

Take “8 (cyclo([dW]L[dW]K[dD]N[dD]K); SMILES CC(C)C[C@@H]1NC(=O)[C@@H](Cc2c[nH]c3ccccc23)NC(=O)[C@H](CCCCN)NC(=O)[C@@H](CC(=O)O)NC(=O)[C@H](CC(N)=O)NC(=O)[C@@H](CC(=O)O)NC(=O)[C@H](CCCCN)NC(=O)[C@@H](Cc2c[nH]c3ccccc23)NC1=O) [compound 8]”: the “Pre-beta HDL generated (normalized level)” value was found to be 0.26.

“9 (cyclo([dW]L[dW]R[dD]N[dD]K); SMILES CC(C)C[C@@H]1NC(=O)[C@@H](Cc2c[nH]c3ccccc23)NC(=O)[C@H](CCCCN)NC(=O)[C@@H](CC(=O)O)NC(=O)[C@H](CC(N)=O)NC(=O)[C@@H](CC(=O)O)NC(=O)[C@H](CCCNC(=N)N)NC(=O)[C@@H](Cc2c[nH]c3ccccc23)NC1=O) [compound 9]”: the “Pre-beta HDL generated (normalized level)” value is 0.47.

Consider “10 (cyclo([dW]L[dW]K[dD]Q[dD]K); SMILES CC(C)C[C@@H]1NC(=O)[C@@H](Cc2c[nH]c3ccccc23)NC(=O)[C@H](CCCCN)NC(=O)[C@@H](CC(=O)O)NC(=O)[C@H](CCC(N)=O)NC(=O)[C@@H](CC(=O)O)NC(=O)[C@H](CCCCN)NC(=O)[C@@H](Cc2c[nH]c3ccccc23)NC1=O) [compound 10]”, for which the “Pre-beta HDL generated (normalized level)” value was 0.12.

“12 (cyclo([dW]L[dW]H[dE]N[dE]K); SMILES CC(C)C[C@@H]1NC(=O)[C@@H](Cc2c[nH]c3ccccc23)NC(=O)[C@H](CCCCN)NC(=O)[C@@H](CCC(=O)O)NC(=O)[C@H](CC(N)=O)NC(=O)[C@@H](CCC(=O)O)NC(=O)[C@H](Cc2c[nH]cn2)NC(=O)[C@@H](Cc2c[nH]c3ccccc23)NC1=O) [compound 12]”: the “Pre-beta HDL generated (normalized level)” value is on record as 0.07.

With “13 (cyclo([dW]L[dW][Orn][dE]Q[dE][Orn]); SMILES CC(C)C[C@@H]1NC(=O)[C@@H](Cc2c[nH]c3ccccc23)NC(=O)[C@H](CCCN)NC(=O)[C@@H](CCC(=O)O)NC(=O)[C@H](CCC(N)=O)NC(=O)[C@@H](CCC(=O)O)NC(=O)[C@H](CCCN)NC(=O)[C@@H](Cc2c[nH]c3ccccc23)NC1=O) [compound 13]”, the “Pre-beta HDL generated (normalized level)” value is reported as 0.46.

For “15 (cyclo(Y[dL]W[dY]K[dH]A[dE]); SMILES CC(C)C[C@H]1NC(=O)[C@H](Cc2ccc(O)cc2)NC(=O)[C@@H](CCC(=O)O)NC(=O)[C@H](C)NC(=O)[C@@H](Cc2c[nH]cn2)NC(=O)[C@H](CCCCN)NC(=O)[C@@H](Cc2ccc(O)cc2)NC(=O)[C@H](Cc2c[nH]c3ccccc23)NC1=O) [compound 15]”, the “Pre-beta HDL generated (normalized level)” value was found to be 0.51.

Consider “16 (cyclo(Y[dW]E[dL]Y[dS]K[dQ]); also: 2nd residue stated as DL-residue) [compound 16]”, for which the “Pre-beta HDL generated (normalized level)” value amounted to 0.09.

“17 (cyclo(Y[dW]D[dS]K[dH]); SMILES NCCCC[C@@H]1NC(=O)[C@@H](CO)NC(=O)[C@H](CC(=O)O)NC(=O)[C@@H](Cc2c[nH]c3ccccc23)NC(=O)[C@H](Cc2ccc(O)cc2)NC(=O)[C@@H](Cc2c[nH]cn2)NC1=O) [compound 17]”: the “Pre-beta HDL generated (normalized level)” value is recorded as 0.08.

Take “19 (cyclo([dW]L[dW][Orn][dE]N[dE][Orn]); SMILES CC(C)C[C@@H]1NC(=O)[C@@H](Cc2c[nH]c3ccccc23)NC(=O)[C@H](CCCN)NC(=O)[C@@H](CCC(=O)O)NC(=O)[C@H](CC(N)=O)NC(=O)[C@@H](CCC(=O)O)NC(=O)[C@H](CCCN)NC(=O)[C@@H](Cc2c[nH]c3ccccc23)NC1=O) [compound 19]”: the “Pre-beta HDL generated (normalized level)” value is 0.36.

For “20 (cyclo([dW]L[dL]E[dE]K[dK]N); SMILES CC(C)C[C@@H]1NC(=O)[C@@H](Cc2c[nH]c3ccccc23)NC(=O)[C@H](CC(N)=O)NC(=O)[C@@H](CCCCN)NC(=O)[C@H](CCCCN)NC(=O)[C@@H](CCC(=O)O)NC(=O)[C@H](CCC(=O)O)NC(=O)[C@@H](CC(C)C)NC1=O) [compound 20]”, the “Pre-beta HDL generated (normalized level)” value stood at 0.07.

Regarding “22 (cyclo([dW][Aoc(2)][dW]S[dE]Q[dS][Orn]); SMILES CCCCCC[C@@H]1NC(=O)[C@@H](Cc2c[nH]c3ccccc23)NC(=O)[C@H](CCCN)NC(=O)[C@@H](CO)NC(=O)[C@H](CCC(N)=O)NC(=O)[C@@H](CCC(=O)O)NC(=O)[C@H](CO)NC(=O)[C@@H](Cc2c[nH]c3ccccc23)NC1=O) [compound 22]”, the “Pre-beta HDL generated (normalized level)” value turned out to be 0.13.

Regarding “23 (cyclo([dW]L[dW]R[dE]N[dE][Orn]); SMILES CC(C)C[C@@H]1NC(=O)[C@@H](Cc2c[nH]c3ccccc23)NC(=O)[C@H](CCCN)NC(=O)[C@@H](CCC(=O)O)NC(=O)[C@H](CC(N)=O)NC(=O)[C@@H](CCC(=O)O)NC(=O)[C@H](CCCNC(=N)N)NC(=O)[C@@H](Cc2c[nH]c3ccccc23)NC1=O) [compound 23]”, the “Pre-beta HDL generated (normalized level)” value is on record as 0.16.

Turning to “24 (cyclo([dW]L[dW]H[dE]Q[dE]H); SMILES CC(C)C[C@@H]1NC(=O)[C@@H](Cc2c[nH]c3ccccc23)NC(=O)[C@H](Cc2c[nH]cn2)NC(=O)[C@@H](CCC(=O)O)NC(=O)[C@H](CCC(N)=O)NC(=O)[C@@H](CCC(=O)O)NC(=O)[C@H](Cc2c[nH]cn2)NC(=O)[C@@H](Cc2c[nH]c3ccccc23)NC1=O) [compound 24]”, the “Pre-beta HDL generated (normalized level)” value turned out to be 0.09.

“25 (cyclo([dY]W[dY]K[dS]H[dA]E); SMILES C[C@H]1NC(=O)[C@H](Cc2c[nH]cn2)NC(=O)[C@@H](CO)NC(=O)[C@H](CCCCN)NC(=O)[C@@H](Cc2ccc(O)cc2)NC(=O)[C@H](Cc2c[nH]c3ccccc23)NC(=O)[C@@H](Cc2ccc(O)cc2)NC(=O)[C@H](CCC(=O)O)NC1=O) [compound 25]”: the “Pre-beta HDL generated (normalized level)” value is 0.19.

Turning to “26 (cyclo([dW]L[dL][dW]K[dD]D[dK]); not fully specified (residues 5, 7)) [compound 26]”, the “Pre-beta HDL generated (normalized level)” value amounted to 0.36.

As to “30 (cyclo([dW]L[dW]S[dE]Q[dS]K)) [compound 30]”, the “Pre-beta HDL generated (normalized level)” value is recorded as 0.06.

As for “34 (cyclo([dY]D[dY]W[dY]H[dA]K); not fully specified (residues 2, 4, 6, 8)) [compound 34]”, the “Pre-beta HDL generated (normalized level)” value is 0.08.

In the case of “35 (cyclo([dW]L[dW]R[dE]Q[dE][Orn]); SMILES CC(C)C[C@@H]1NC(=O)[C@@H](Cc2c[nH]c3ccccc23)NC(=O)[C@H](CCCN)NC(=O)[C@@H](CCC(=O)O)NC(=O)[C@H](CCC(N)=O)NC(=O)[C@@H](CCC(=O)O)NC(=O)[C@H](CCCNC(=N)N)NC(=O)[C@@H](Cc2c[nH]c3ccccc23)NC1=O) [compound 35]”, the “Pre-beta HDL generated (normalized level)” value is listed as 0.02.

On to “40 (cyclo([dW]L[dW]S[dE]Q[dH]K); SMILES CC(C)C[C@@H]1NC(=O)[C@@H](Cc2c[nH]c3ccccc23)NC(=O)[C@H](CCCCN)NC(=O)[C@@H](Cc2c[nH]cn2)NC(=O)[C@H](CCC(N)=O)NC(=O)[C@@H](CCC(=O)O)NC(=O)[C@H](CO)NC(=O)[C@@H](Cc2c[nH]c3ccccc23)NC1=O) [compound 40]”, for which the “Pre-beta HDL generated (normalized level)” value was determined as 0.40.

Regarding “47 (cyclo(WIW[dW][dK][dH][dK][dH]); SMILES CC[C@H](C)[C@@H]1NC(=O)[C@H](Cc2c[nH]c3ccccc23)NC(=O)[C@@H](Cc2c[nH]cn2)NC(=O)[C@@H](CCCCN)NC(=O)[C@@H](Cc2c[nH]cn2)NC(=O)[C@@H](CCCCN)NC(=O)[C@@H](Cc2c[nH]c3ccccc23)NC(=O)[C@H](Cc2c[nH]c3ccccc23)NC1=O) [compound 47]”, the “Pre-beta HDL generated (normalized level)” value is listed as 0.79.

With “48 (cyclo([dW]F[dY]Y[dH][Orn][dR]S); SMILES N=C(N)NCCC[C@H]1NC(=O)[C@H](CCCN)NC(=O)[C@@H](Cc2c[nH]cn2)NC(=O)[C@H](Cc2ccc(O)cc2)NC(=O)[C@@H](Cc2ccc(O)cc2)NC(=O)[C@H](Cc2ccccc2)NC(=O)[C@@H](Cc2c[nH]c3ccccc23)NC(=O)[C@H](CO)NC1=O) [compound 48]”, the “Pre-beta HDL generated (normalized level)” value amounted to 0.70.

“49 (cyclo([4Pal][dW]L[dL]H[dS]K[dK]); not fully specified; printed as c[(PA)wLlHsKk]) [compound 49]”: the “Pre-beta HDL generated (normalized level)” value is recorded as 0.67.

On to “50 (cyclo(WIW[dR]E[dQ]E[dR]); SMILES CC[C@H](C)[C@@H]1NC(=O)[C@H](Cc2c[nH]c3ccccc23)NC(=O)[C@@H](CCCNC(=N)N)NC(=O)[C@H](CCC(=O)O)NC(=O)[C@@H](CCC(N)=O)NC(=O)[C@H](CCC(=O)O)NC(=O)[C@@H](CCCNC(=N)N)NC(=O)[C@H](Cc2c[nH]c3ccccc23)NC1=O) [compound 50]”, for which the “Pre-beta HDL generated (normalized level)” value came out at 0.54.

In the case of “51 (cyclo([dF]W[dW]Y[dT]R[dH]S); SMILES C[C@H](O)[C@H]1NC(=O)[C@H](Cc2ccc(O)cc2)NC(=O)[C@@H](Cc2c[nH]c3ccccc23)NC(=O)[C@H](Cc2c[nH]c3ccccc23)NC(=O)[C@@H](Cc2ccccc2)NC(=O)[C@H](CO)NC(=O)[C@@H](Cc2c[nH]cn2)NC(=O)[C@H](CCCNC(=N)N)NC1=O) [compound 51]”, the “Pre-beta HDL generated (normalized level)” value amounted to 1.44.
